According to patent US20200163984A1, “USE OF ISOVALERYL SPIRAMYCIN I, II AND/OR III IN MANUFACTURING MEDICAMENT FOR TREATING AND/OR PREVENTING TUMOR, AND MEDICAMENT” (SHENYANG FUYANG PHARMACEUTICAL TECHNOLOGY CO., LTD., priority 2017, published 2020):
Converted amounts (≈) assume the structure as drawn. Read-outs that look alike come from different tables or passages of the source. Blank lines part the entries; values can stand above or below the molecule they belong to.

Tests used:
[1] = test system: human thyroid cancer cell TPC-1; conditions: TPC-1, MTT
Text: (§1) The purpose of the assay is to evaluate the in vitro cell proliferation inhibition or cytotoxic activity of a tested sample.
(§2) Human breast cancer cells MCF-7 and MDA-MB-231, human hepatoma cells HepG2, human non-small cell lung cancer cells A549, human large cell lung cancer cells H460 and H1299, human renal clear cell adenocarcinoma cell 786-0, human renal cell adenocarcinoma cell 769-P, human glioma cell U251, human glioblastoma cell A172, human tissue lymphoma cell U937, human cervical cancer cell HeLa, human prostate cancer cell PC3, human pancreatic cancer cell PANC-1, human esophageal cancer cell TE-1, human gastric adenocarcinoma cell SGC7901, human colon cancer cell HT-29, human promyelocytic leukemia cell HL-60, human thyroid cancer cell TPC-1, and human bladder cancer cell T-24.
(§3) The inhibition rate of the medicament on tumor cell growth is calculated according to the following formula:
(§4) Tumor cell growth inhibition rate (%)=[A492 (negative control)−A492 (dosing group)]/A492 (negative control)×100%
(§5) And the half-inhibitory concentration (IC50) of the sample is determined therefrom.

[2] = test system: human bladder cancer cell T-24; conditions: T-24, MTT
Text: as §1, §2, §3, §4, §5

[3] = test system: transplanted tumor of human glioblastoma cell A172; conditions: for Tumor Volume (mm3) (d 1): d1
Method: Then cell concentration was adjusted to 1×10^7/ml with matrigel, then each nude mouse was inoculated subcutaneously with 0.2 ml of cells at its right armpit and recorded as the first day of inoculation. When the tumor grows to be greater than or equal to 100 mm^3, the mice were randomly divided into 11 groups with 6 mice in each group: a model group, a temozolomide group, […], […], […] Each group was continuously administered intragastrically for 30 days with a dose of 20 ml/kg. The mice were sacrificed the next day after drug withdrawal and the indicators were tested. The long diameter and short diameter of the tumor, and the body weight of each mouse were recorded every 3 days from drug administration to nude mouse sacrifice.
(§6) The body weight of the nude mice and the long diameter (a) and short diameter (b) of the transplanted tumor were measured every 3 days, and the tumor volume (v), relative tumor volume (RTV) and relative tumor proliferation rate (T/C) are calculated respectively according to the following formulas, wherein V=a×b^2/2; RTV=V/V0 (V0 is the tumor volume before administration, V is the tumor volume before sacrifice), and T/C (%)=treatment group RTV/model control group RTV×100%.
(§7) Each mouse was weighed and sacrificed. After the tumor was completely stripped off from the body of the mouse, the non-tumor tissues such as blood stains and fat were removed to weigh the tumor and calculate the tumor growth inhibition rate. The average tumor weight of each group of mice is used as an indicator of efficacy. Tumor growth inhibition rate (%)=(1−the average tumor weight of the treatment group/the average tumor weight of the model group)×100%.

[4] = test system: transplanted tumor of human breast cancer cell MCF-7; assay: MCF-7 transplanted tumor in nude mice
Method: (§8) Then cell concentration was adjusted to 1×10^7/ml with matrigel, then each nude mouse was inoculated subcutaneously with 0.2 ml of cells at its right armpit and recorded as the first day of inoculation. When the tumor grows to be greater than or equal to 100 mm^3, the mice were randomly divided into 11 groups with 6 mice in each group: a model group, a cyclophosphamide group, isovaleryl spiramycin I groups with doses of 25, 50 and 100 mg/kg, isovaleryl spiramycin II groups with doses of 25, 50 and 100 mg/kg, and isovaleryl spiramycin III groups with doses of 25, 50 and 100 mg/kg. Each group was continuously administered intragastrically for 30 days with a dose of 20 ml/kg. The mice were sacrificed the next day after drug withdrawal and the indicators were tested. The long diameter and short diameter of the tumor, and the body weight of each mouse were recorded every 3 days from drug administration to nude mouse sacrifice.
as §6, §7

[5] = test system: transplanted tumor of human prostate cancer cell PC3; assay: PC3 transplanted tumor in nude mice
Method: as §8, §6, §7

[6] = A172, high dose (100 mg/kg in method) i.g. 30 days
[7] = A172, low dose (25 mg/kg in method) i.g. 30 days
[8] = A172, medium dose (50 mg/kg in method) i.g. 30 days
[9] = MCF-7, 25 mg/kg (low dose) i.g. 30 days
[10] = MCF-7, 50 mg/kg (medium dose) i.g. 30 days
[11] = MCF-7, 100 mg/kg (high dose) i.g. 30 days
[12] = PC3, 25 mg/kg (low dose) i.g. 30 days
[13] = PC3, 50 mg/kg (medium dose) i.g. 30 days
[14] = PC3, 100 mg/kg (high dose) i.g. 30 days

IC50 [1]: 45.37 ± 2.90 µg/mL (≈ 46.8 µM)
IC50 [2]: 39.85 ± 3.26 µg/mL (≈ 41.1 µM)
mouse weight compared with the model group ([3]; mouse, in vivo): no significant changes
mouse weight compared with the model group ([4]; mouse, in vivo): no significant changes
mouse weight compared with the model group ([5]; mouse, in vivo): no significant changes
Structure (SMILES): COC1C(OC(C)=O)CC(=O)OC(C)CC=CC=CC(OC2CCC(N(C)C)C(C)O2)C(C)CC(CC=O)C1OC1OC(C)C(OC2CC(C)(O)C(OC(=O)CC(C)C)C(C)O2)C(N(C)C)C1O (stereo not shown) [Isovaleryl spiramycin II, isovaleryl spiramycin II]
Relative Tumor Proliferation Rate (T/C) [3, 6]: 42.18%
tumor growth inhibition rate [3, 6]: 40.01%
Relative Tumor Proliferation Rate (T/C) [3, 7]: 74.24%
tumor growth inhibition rate [3, 7]: 10.85%
tumor volume and relative tumor volume compared with the model group ([3]; A172, low, medium and high doses, P<0.05): significantly lower
Relative Tumor Proliferation Rate (T/C) [3, 8]: 50.59%
tumor growth inhibition rate [3, 8]: 15.71%
Inhibition Rate (%) ([3]; A172 nude mice, 12.5 mg/kg): 10.85%
Relative Tumor Proliferation Rate (T/C) ([3]; A172 nude mice, 12.5 mg/kg): 74.24%
Relative Tumor Volume (RTV) ([3]; A172 nude mice, 12.5 mg/kg): 14.73 ± 1.33
Tumor Weight ([3]; A172 nude mice, 12.5 mg/kg): 1.24 ± 0.12 g
Tumor Volume (mm3) (d 1) ([3]; A172 nude mice, 12.5 mg/kg): 123.39 ± 11.22 mm3
Tumor Volume (mm3) (d30) ([3]; A172 nude mice, 12.5 mg/kg): 1525.41 ± 255.74 mm3
Inhibition Rate (%) ([3]; A172 nude mice, 25 mg/kg): 15.71%
Relative Tumor Proliferation Rate (T/C) ([3]; A172 nude mice, 25 mg/kg): 50.59%
Relative Tumor Volume (RTV) ([3]; A172 nude mice, 25 mg/kg): 14.31 ± 0.98
Tumor Weight ([3]; A172 nude mice, 25 mg/kg): 1.17 ± 0.10 g
Tumor Volume (mm3) (d 1) ([3]; A172 nude mice, 25 mg/kg): 115.96 ± 11.42 mm3
Tumor Volume (mm3) (d30) ([3]; A172 nude mice, 25 mg/kg): 984.26 ± 197.97 mm3
Inhibition Rate (%) ([3]; A172 nude mice, 50 mg/kg): 40.01%
Relative Tumor Proliferation Rate (T/C) ([3]; A172 nude mice, 50 mg/kg): 42.18%
Relative Tumor Volume (RTV) ([3]; A172 nude mice, 50 mg/kg): 12.88 ± 1.54
Tumor Weight ([3]; A172 nude mice, 50 mg/kg): 0.84 ± 0.12 g
Tumor Volume (mm3) (d 1) ([3]; A172 nude mice, 50 mg/kg): 120.28 ± 10.53 mm3
Tumor Volume (mm3) (d30) ([3]; A172 nude mice, 50 mg/kg): 851.14 ± 215.31 mm3
Body Weight (g) (d1) ([3]; mouse, in vivo, 12.5 mg/kg): 21.36 ± 0.67 g
Body Weight (g) (d30) ([3]; mouse, in vivo, 12.5 mg/kg): 21.36 ± 0.87 g
Body Weight (g) (d1) ([3]; mouse, in vivo, 25 mg/kg): 21.10 ± 0.62 g
Body Weight (g) (d30) ([3]; mouse, in vivo, 25 mg/kg): 21.30 ± 0.89 g
Body Weight (g) (d1) ([3]; mouse, in vivo, 50 mg/kg): 21.08 ± 0.74 g
Body Weight (g) (d30) ([3]; mouse, in vivo, 50 mg/kg): 20.97 ± 0.68 g
Inhibition Rate (tumor growth inhibition rate) [4, 9]: 20.55%
Relative Tumor Proliferation Rate (T/C) [4, 9]: 79.23%
Relative Tumor Volume (RTV) [4, 9]: 13.87 ± 1.53
Tumor Volume (d 1) [4, 9]: 104.64 ± 10.69 mm3
Tumor Volume (d 30) [4, 9]: 1450.36 ± 218.20 mm3
Tumor Weight [4, 9]: 2.16 ± 0.51 g
Inhibition Rate (tumor growth inhibition rate) [4, 10]: 41.72%
Relative Tumor Proliferation Rate (T/C) [4, 10]: 60.58%
Relative Tumor Volume (RTV) [4, 10]: 10.60 ± 1.10
Tumor Volume (d 1) [4, 10]: 105.81 ± 11.20 mm3
Tumor Volume (d 30) [4, 10]: 1113.42 ± 71.14 mm3
Tumor Weight [4, 10]: 1.58 ± 0.51 g
Inhibition Rate (tumor growth inhibition rate) [4, 11]: 56.81%
Relative Tumor Proliferation Rate (T/C) [4, 11]: 44.45%
Relative Tumor Volume (RTV) [4, 11]: 7.78 ± 1.71
Tumor Volume (d 1) [4, 11]: 119.69 ± 14.63 mm3
Tumor Volume (d 30) [4, 11]: 914.69 ± 130.26 mm3
Tumor Weight [4, 11]: 1.17 ± 0.47 g
Relative Tumor Proliferation Rate (T/C) ([4]; MCF-7, 100 mg/kg (high dose) i.g. 30 days, listed as isovaleryl spiramycin II): 44.44%
tumor volume and relative tumor volume compared with the model group ([4]; MCF-7, low, medium and high doses, P<0.05): significantly lower
Inhibition Rate (tumor growth inhibition rate) [5, 12]: 23.49%
Relative Tumor Proliferation Rate (T/C) [5, 12]: 83.04%
Relative Tumor Volume (RTV) [5, 12]: 16.24 ± 6.00
Tumor Volume (d 1) [5, 12]: 154.86 ± 4.11 mm3
Tumor Volume (d 30) [5, 12]: 2404.85 ± 672.33 mm3
Tumor Weight [5, 12]: 1.44 ± 0.56 g
Inhibition Rate (tumor growth inhibition rate) [5, 13]: 40.16%
Relative Tumor Proliferation Rate (T/C) [5, 13]: 60.08%
Relative Tumor Volume (RTV) [5, 13]: 11.75 ± 3.78
Tumor Volume (d 1) [5, 13]: 157.25 ± 38.97 mm3
Tumor Volume (d 30) [5, 13]: 1729.14 ± 128.57 mm3
Tumor Weight [5, 13]: 1.13 ± 0.43 g
Inhibition Rate (tumor growth inhibition rate) [5, 14]: 50.44%
Relative Tumor Proliferation Rate (T/C) [5, 14]: 44.48%
Relative Tumor Volume (RTV) [5, 14]: 8.70 ± 2.61
Tumor Volume (d 1) [5, 14]: 131.11 ± 22.05 mm3
Tumor Volume (d 30) [5, 14]: 1162.46 ± 495.46 mm3
Tumor Weight [5, 14]: 0.93 ± 0.27 g
tumor volume and relative tumor volume compared with the model group ([5]; PC3, low, medium and high doses, P<0.05): significantly lower

Structure (SMILES): O=P1(N(CCCl)CCCl)NCCCO1 (stereo not shown) [Cyclophosphamide, cyclophosphamide, reference compound]
Body Weight (d 1) ([4]; MCF-7, 30 mg/kg i.g. 30 days): 22.03 ± 0.70 g
Body Weight (d 30) ([4]; MCF-7, 30 mg/kg i.g. 30 days): 17.77 ± 0.65 g
Inhibition Rate (tumor growth inhibition rate) ([4]; MCF-7, 30 mg/kg i.g. 30 days): 70.18%
Relative Tumor Proliferation Rate (T/C) ([4]; MCF-7, 30 mg/kg i.g. 30 days): 29.56%
Relative Tumor Volume (RTV) ([4]; MCF-7, 30 mg/kg i.g. 30 days): 5.17 ± 0.64
Tumor Volume (d 1) ([4]; MCF-7, 30 mg/kg i.g. 30 days): 103.78 ± 12.65 mm3
Tumor Volume (d 30) ([4]; MCF-7, 30 mg/kg i.g. 30 days): 532.62 ± 56.27 mm3
Tumor Weight ([4]; MCF-7, 30 mg/kg i.g. 30 days): 0.81 ± 0.25*8 g
Body Weight (d 1) ([5]; PC3, 30 mg/kg i.g. 30 days): 21.57 ± 0.75 g
Body Weight (d 30) ([5]; PC3, 30 mg/kg i.g. 30 days): 16.43 ± 0.78 g
Inhibition Rate (tumor growth inhibition rate) ([5]; PC3, 30 mg/kg i.g. 30 days): 70.03%
Relative Tumor Proliferation Rate (T/C) ([5]; PC3, 30 mg/kg i.g. 30 days): 29.33%
Relative Tumor Volume (RTV) ([5]; PC3, 30 mg/kg i.g. 30 days): 5.73 ± 2.23
Tumor Volume (d 1) ([5]; PC3, 30 mg/kg i.g. 30 days): 155.36 ± 34.96 mm3
Tumor Volume (d 30) ([5]; PC3, 30 mg/kg i.g. 30 days): 834.50 ± 135.35 mm3
Tumor Weight ([5]; PC3, 30 mg/kg i.g. 30 days): 0.56 ± 0.17 g
